Assay [1] deals with blood eosinophils, neutrophils, circulating type 2 inflammatory mediators. Kind of assay: BAC study: blood eosinophils, neutrophils and circulating type 2 inflammatory mediators. The class given is in vivo, human. The procedure:
Circulating Biomarkers: circulating biomarker samples are collected at time points according to Table 1 and Table 2. Biomarker measurements are performed in serum and plasma samples to determine effects on biomarkers of inflammatory diseases pathobiology or relevant physiological and pathogenic processes. The biomarkers studied are ones believed to be relevant to the pathophysiology of diseases, target engagement, mechanism of action of REGN3500 (and/or combination therapy) and possible toxicities. Biomarkers studied in the blood may include but need not be limited to, IL-33, soluble ST2, calcitonin, and MMP12.

Assay [2] relates to BAC-induced inflammatory gene expression signatures in sputum. Kind of assay: Bronchial allergen challenge (BAC) with HDM in patients with mild allergic asthma: gene expression signatures (mRNA) in induced sputum. In kind it is in vivo, human. Particulars: for eosinophil gene signature scores: FIG. 14, post bronchial allergen challenge, across treatment arms; for allergen-induced eosinophilic signature and broader type 2 inflammatory signature, including CCL26, CCL17, and SIGLEC8: monotherapy, REGN3500 IV 10 mg/kg single dose, dupilumab SC 600 mg day 1, 300 mg day 15, sputum after BAC. The procedure: Bronchial allergen challenge involves patient inhalation of allergen that results in a biphasic airway response, which is characterized by an early (30 minutes to 2 hours post-allergen challenge) and a late (approximately 3 to 8 hours post-allergen challenge) decline in forced expiratory volume over 1 second (FEV1).
Enrolled patients undergo BAC during the screening period, and at 4 and 8 weeks after administration of the first doses of study drug(s). The effects of the study drugs on BAC-induced lung inflammation are assessed via measurements of sputum molecular signatures (mRNAs and proteins). The sputum molecular signatures are assessed before BAC (baseline) and after BAC (post-BAC) at screening and at weeks 4 and 8 after treatment initiation (FIG. 1). The BAC-induced difference in the sputum signatures before and after BAC are evaluated at screening (screening change) and at weeks 4 and 8 post-treatment (week 4 change and week 8 change) will be observed. Since both REGN3500 and dupilumab display long half-lives, BAC change is evaluated at both week 4 and week 8 in the current study, to monitor the durability of the potential impact of study drug treatment on airway inflammation. The effect of study drug treatment on induced sputum gene signatures is evaluated by the difference between the BAC-induced screening change and the BAC-induced week 4 change (screening to week 4 change) and by the difference between the BAC-induced screening change and the BAC-induced week 8 change (screening to week 8 change).
Part 1 of this study is a randomized, double-blind, placebo-controlled, double-dummy parallel group study in mild persistent allergic asthmatic patients to assess the effect of REGN3500, dupilumab, REGN3500 plus dupilumab combination, or placebo on lung inflammation (as measured by sputum cytokine mRNAs) and measurements of the late phase inflammatory airway response to a BAC using HDM. Patients are randomized to one of the following treatment groups: REGN3500 (IV single dose); dupilumab (SC 2 doses, Q2W); combination REGN3500 (IV single dose) plus dupilumab (SC 2 doses, Q2W), and placebo (IV single dose and SC 2 doses, Q2W).
Because the treatment groups in this study include a first clinical dosing of REGN3500 plus dupilumab combination, Part 1 is performed in 2 phases to address any potential safety issues. The first 8 patients are randomized 1:1:1:1 to receive study drug. On day 1: patients in the REGN3500 group receive REGN3500 IV 10 mg/kg, followed by dupilumab-matching placebo SC, patients in the dupilumab group receive REGN3500-matching placebo IV followed by a loading dose of dupilumab SC 600 mg (2 injections of 300 mg), patients in the REGN3500 plus dupilumab combination will receive REGN3500 10 mg/kg IV, followed by dupilumab SC 600 mg (2 injections of 300 mg), and patients in the placebo group will receive REGN3500-matching placebo IV, followed by 2 injections of dupilumab-matching placebo SC.
On day 15 (week 2), patients assigned to the dupilumab group or the REGN3500 plus dupilumab combination group receive dupilumab SC 300 mg and all other patients receive dupilumab-matching placebo SC.
All enrolled patients return to the clinic on day 24± 2 days and on day 52 ± 2 days to provide a baseline induced sputum sample. If an adequate sputum sample cannot be obtained, patients may return 72 hours later for a second attempt to produce baseline sputum. Pre-BAC sputum collection must occur at least 72 hours prior to the BAC. Seventy-two hours after the baseline induced sputum sample is collected, on day 29 ± 2 days and on day 57 ± 2 days, respectively, patients return to the clinic, and measurements of FEV1, and FeNO are performed prior to undergoing BAC with HDM. Sputum induction is performed 8 hours and 24 hours after inhaled BAC at both the days 29 ± 2 (week 4) and 57 ± 2 days (week 8) visits. […]

The test system of assay [3] is HDM-driven lung inflammation. Kind of assay: Chronic house dust mite (HDM) model of lung inflammation. In kind it is in vivo. Particulars: FIG. 5; for pro-inflammatory cytokines and chemokines (lung panel hIL-4, IL-5, IL-1b, TNFα, IFNg, GROa, MCP-1): chronic HDM model; for inflammation in chronic HDM model of lung inflammation (lung eosinophils, lung neutrophils): with and without anti-IL-33 treatment. The text has this:
Data is presented showing levels of lung eosinophils and lung neutrophils in the HDM model with and without anti-IL-33 treatment. A heat map of a lung cytokine gene panel is presented showing levels of hIL-4, IL-5, IL-1b, TNFα, IFNg, GROa, and MCP-1. Alveolar SMA testing data is presented as well.
Treatment with REGN3 500 suppressed pro-inflammatory cytokines and chemokines. […] Other data presented includes a heat map of lung of cytokine panel showing levels of hIL-4, IL-5, IL-1b, TNFα, IFNg, GROa, and MCP-1. Alveolar SMA testing was also performed.

“Also recorded” adds a separate entry of the source.

Turning to “REGN3500: human anti-IL-33 antibody; HCVR/LCVR SEQ ID NOs: 2 and 10, heavy/light chain SEQ ID NOs: 18 and 20”, in assay [1] (in vivo), the neutrophils result is reported as “No anti-IL-33 mediated reduction” and the “other circulating type 2 inflammatory mediators” value is listed as “no anti-IL-33 mediated reduction”. Besides, the blood eosinophils result in assay [1] (pharmacodynamic effect) was “reduction in blood eosinophils was a consistent pharmacodynamic effect”. The “type 2 inflammatory cytokine and chemokine genes induced by BAC (IL-5, IL-13, Eot-3 (CCL26), TARC (CCL17), CCL1, FCER2, SIGLEC8)” value in assay [2] (FIG. 9, genes induced at 8 or 24 hours after allergen challenge, sputum) is “suppressed”. The “eosinophil signature genes in sputum (ADARB1, ASB2, CLC, HDC, IL1RL1, PTPN7, SIGLEC8, SYNE1, VSTM1)” value in assay [2] (FIG. 11) was “suppressed; also recorded: suppression”. Also, the neutrophil signature genes entry in assay [2] (FIG. 11, sputum) was “No anti-IL-33 (REGN3500) treatment-mediated effects were noted; also recorded: did not have an effect”. Besides, the “type 2 inflammatory signature genes in sputum (IL-4, IL-13, CCL26, CCL13, CCL17, CCL11, POSTN, IL-5, IL-9)” value in assay [2] (FIG. 12) is recorded as “suppressed; also recorded: suppression”. Also, in assay [2], the “eosinophil gene signature scores” value was “able to reduce”; the “allergen-induced eosinophilic signature and broader type 2 inflammatory signature, including CCL26, CCL17, and SIGLEC8” value is “significantly inhibited”. In addition, the “decrease of type 2 signature scores” value in assay [2] (FIG. 15, compared with the fluticasone treatment arm) is reported as “lower decrease”. In addition, the “allergic asthma signature genes (BC042385 ... RHOH)” value in assay [2] (FIG. 16, at 8 and/or 24 hours post BAC) was “affected”. In addition, the “top allergic asthma signature genes induced by BAC at 24 hours (ASAP1-IT1 ... CCL17, CCL13, CCL26, SIGLEC8, IL13, IL5, PTGDS, RD3)” value in assay [2] (FIG. 17, screening vs treatment) was “suppressed”. In addition, the “pro-inflammatory cytokines and chemokines (lung panel hIL-4, IL-5, IL-1b, TNFα, IFNg, GROa, MCP-1)” value in assay [3] (listed as REGN3 500) is reported as “suppressed”. Besides, in assay [3] (listed as anti-IL-33), the “pro-inflammatory cytokines and chemokines (lung panel hIL-4, IL-5, IL-1b, TNFα, IFNg, GROa, MCP-1)” value is given as “suppresses”; the “inflammation in chronic HDM model of lung inflammation (lung eosinophils, lung neutrophils)” value is listed as “reduces inflammation”. Further, the “inflammation in chronic HDM model of lung inflammation (lung eosinophils, lung neutrophils)” value in assay [3] is on record as “reduced inflammation”.

“dupilumab: human anti-IL-4R antibody; HCVR/LCVR SEQ ID NOs: 27 and 28, heavy/light chain SEQ ID NOs: 29 and 30 [reference compound]”: in assay [2], the “eosinophil gene signature scores” value is given as “able to reduce”; the “allergen-induced eosinophilic signature and broader type 2 inflammatory signature, including CCL26, CCL17, and SIGLEC8” value is reported as “significantly inhibited”. Further, the “genes suppressed by REGN3500 (many of them)” value in assay [2] (albeit with different dynamics) was “also suppressed”.

The values are drawn from patent US20230340101A1, “METHODS FOR TREATING OR PREVENTING ALLERGIC ASTHMA BY ADMINISTERING AN IL-33 ANTAGONIST AND/OR AN IL-4R ANTAGONIST” (SANOFI BIOTECHNOLOGY, priority 2019, published 2023).
